Test results: patent publication US10421740B2, “Pesticidally active heterocyclic derivatives with sulphur containing substituents” (SYNGENTA PARTICIPATIONS AG, priority 2016, dated 2019)

Tests used:
[1] = tested on: Euschistus heros (Neotropical Brown Stink Bug); assay: Activity against Euschistus heros (neotropical brown stink bug); assay type: in vivo; settings: 120 h, application rate 200 ppm, soybean leaves, N2 nymphs, 5 days after infestation, read-out: effect in at least one of the two categories (mortality or growth inhibition)
Experimental: Example B9: Activity Against Euschistus heros (Neotropical Brown Stink Bug)
Soybean leaves on agar in 24-well microtiter plates were sprayed with aqueous test solutions prepared from 10'000 ppm DMSO stock solutions. After drying the leaves were infested with N2 nymphs. The samples were assessed for mortality and growth inhibition in comparison to untreated samples 5 days after infestation.

[2] = tested on: Myzus persicae (Green Peach Aphid); assay: Activity against Myzus persicae (green peach aphid): feeding/contact activity; assay type: in vivo; settings: foliar, 144 h, application rate 200 ppm, sunflower leaf discs, aphid population of mixed ages, 6 days after infestation
Experimental: Example B3: Activity Against Myzus persicae (Green Peach Aphid): Feeding/Contact Activity
Sunflower leaf discs were placed onto agar in a 24-well microtiter plate and sprayed with aqueous test solutions prepared from 10'000 ppm DMSO stock solutions. After drying, the leaf discs were infested with an aphid population of mixed ages. The samples were assessed for mortality 6 days after infestation.

[3] = tested on: Myzus persicae (Green Peach Aphid); assay: Activity against Myzus persicae (green peach aphid): systemic activity; assay type: in vivo; settings: 144 h, test rate 24 ppm, roots of pea seedlings in test solution, 6 days
Experimental: Example B4: Activity Against Myzus persicae (Green Peach Aphid): Systemic Activity
Roots of pea seedlings infested with an aphid population of mixed ages were placed directly into aqueous test solutions prepared from 10'000 DMSO stock solutions. The samples were assessed for mortality 6 days after placing seedlings into test solutions.

[4] = tested on: Plutella xylostella (Diamond Back Moth); assay: Activity against Plutella xylostella (diamond back moth); assay type: in vivo; settings: 120 h, application rate 200 ppm, artificial diet, L2 larvae, 5 days after infestation, read-out: effect in at least one of the two categories (mortality or growth inhibition)
Experimental: Example B5: Activity Against Plutella xylostella (Diamond Back Moth)
(§1) 24-well microtiter plates with artificial diet were treated with aqueous test solutions prepared from 10'000 ppm DMSO stock solutions by pipetting. After drying, the plates were infested with L2 larvae (10 to 15 per well). The samples were assessed for mortality and growth inhibition in comparison to untreated samples 5 days after infestation.

[5] = tested on: Bemisia tabaci (Cotton White Fly); assay: Activity against Bemisia tabaci (cotton white fly): feeding/contact activity; assay type: in vivo; settings: foliar, 144 h, application rate 200 ppm, cotton leaf discs, adult white flies, 6 days after incubation
Experimental: Example B1: Activity Against Bemisia tabaci (Cotton White Fly): Feeding/Contact Activity
Cotton leaf discs were placed on agar in 24-well microtiter plates and sprayed with aqueous test solutions prepared from 10'000 ppm DMSO stock solutions. After drying the leaf discs were infested with adult white flies. The samples were checked for mortality 6 days after incubation.

[6] = tested on: Diabrotica balteata (Corn Root Worm); assay: Activity against Diabrotica balteata (corn root worm); assay type: in vivo; settings: 96 h, application rate 200 ppm, maize sprouts, L2 larvae, 4 days after infestation, read-out: effect in at least one of the two categories (mortality or growth inhibition)
Experimental: Example B2: Activity Against Diabrotica balteata (Corn Root Worm)
as §1, with “Maize sprouts placed onto an agar layer in 24-well” for “24-well”, “plates” for “plates with artificial diet”, “spraying.” for “pipetting.”, “(6” for “(10”, “10” for “15”, “4” for “5”

[7] = tested on: Spodoptera littoralis (Egyptian Cotton Leaf Worm); assay: Activity against Spodoptera littoralis (Egyptian cotton leaf worm), cotton leaf disc spray; assay type: in vivo; settings: foliar, 72 h, application rate 200 ppm, cotton leaf discs, L1 larvae, 3 days after infestation
Experimental: Example B8: Activity Against Spodoptera littoralis (Egyptian Cotton Leaf Worm)
Cotton leaf discs were placed onto agar in 24-well microtiter plates and sprayed with aqueous test solutions prepared from 10'000 ppm DMSO stock solutions. After drying the leaf discs were infested with five L1 larvae. The samples were assessed for mortality, anti-feeding effect, and growth inhibition in comparison to untreated samples 3 days after infestation. Control of Spodoptera littoralis by a test sample is given when at least one of the categories mortality, anti-feedant effect, and growth inhibition is higher than the untreated sample.

Which melting point does the source give for CCS(=O)(=O)c1cc2[nH]nnc2nc1-c1nnc(-c2cc(C(F)(F)F)ccn2)n1C [Compound A12, 6-ethylsulfonyl-5-[4-methyl-5-[4-(trifluoromethyl)-2-pyridyl]-1,2,4-triazol-3-yl]-1H-triazolo[4,5-b]pyridine] here?
The melting point was 303 to 305 °C.

Which results are given for CCn1nnc2nc(-c3nnc(-c4cc(C(F)(F)F)ccn4)n3C)c(S(=O)(=O)CC)cc21 [Compound A13, 1-ethyl-6-ethylsulfonyl-5-[4-methyl-5-[4-(trifluoromethyl)-2-pyridyl]-1,2,4-triazol-3-yl]triazolo[4,5-b]pyridine]?
effect (mortality or growth inhibition) at 200 ppm [1]: ≥ 80%; mortality at 200 ppm [2]: ≥ 80%; mortality at 24 ppm [3]: ≥ 80%; percent control (mortality or growth inhibition) at 200 ppm [4]: ≥ 80%

Which mortality at 24 ppm [3] does the source give for CCS(=O)(=O)c1cc2nn(COC)nc2nc1-c1nnc(-c2cc(C(F)(F)F)ccn2)n1C [Compound A17, 6-ethylsulfonyl-2-(methoxymethyl)-5-[4-methyl-5-[4-(trifluoromethyl)-2-pyridyl]-1,2,4-triazol-3-yl]triazolo[4,5-b]pyridine] here?
Its mortality at 24 ppm is no less than 80%.

For CCS(=O)(=O)c1cc2c(nnn2COC)nc1-c1nnc(-c2cc(C(F)(F)F)ccn2)n1C [Compound A11, 6-ethylsulfonyl-1-(methoxymethyl)-5-[4-methyl-5-[4-(trifluoromethyl)-2-pyridyl]-1,2,4-triazol-3-yl]triazolo[4,5-b]pyridine], which melting point is on record?
The melting point was 176 to 178 °C.

Which results are given for CCS(=O)(=O)c1cc2nc(C(F)(F)F)sc2cc1-c1nnc(-c2cc(C(F)(F)F)ccn2)n1C [Compound A6, 5-ethylsulfonyl-6-[4-methyl-5-[4-(trifluoromethyl)-2-pyridyl]-1,2,4-triazol-3-yl]-2-(trifluoromethyl)-1,3-benzothiazole]?
mortality at 200 ppm [5]: ≥ 80%; percent effect (mortality or growth inhibition) at 200 ppm [6]: ≥ 80%; percent control (mortality, anti-feedant effect or growth inhibition) at 200 ppm [7]: ≥ 80%; percent control (mortality or growth inhibition) at 200 ppm [4]: ≥ 80%

Which mortality at 200 ppm [2] does the source give for CCS(=O)(=O)c1cc2ccccc2nc1-c1nnc(-c2cc(C(F)(F)F)ncn2)n1C [Compound A4, 3-ethylsulfonyl-2-[4-methyl-5-[6-(trifluoromethyl)pyrimidin-4-yl]-1,2,4-triazol-3-yl]quinoline] here?
Its mortality at 200 ppm is no less than 80%.

And the percent effect (mortality or growth inhibition) at 200 ppm [6]?
Its percent effect (mortality or growth inhibition) at 200 ppm is no less than 80%.

And the percent control (mortality or growth inhibition) at 200 ppm [4]?
The percent control (mortality or growth inhibition) at 200 ppm was no less than 80%.

What does the source list for CCS(=O)(=O)c1cc2c(nnn2C)nc1-c1nnc(-c2cc(C(F)(F)F)ccn2)n1C [Compound A9, 6-ethylsulfonyl-1-methyl-5-[4-methyl-5-[4-(trifluoromethyl)-2-pyridyl]-1,2,4-triazol-3-yl]triazolo[4,5-b]pyridine]?
effect (mortality or growth inhibition) at 200 ppm [1]: ≥ 80%; mortality at 200 ppm [5]: ≥ 80%; mortality at 200 ppm [2]: ≥ 80%; percent effect (mortality or growth inhibition) at 200 ppm [6]: ≥ 80%; percent control (mortality, anti-feedant effect or growth inhibition) at 200 ppm [7]: ≥ 80%; percent control (mortality or growth inhibition) at 200 ppm [4]: ≥ 80%

For CCS(=O)(=O)c1cc2c(nnn2CCF)nc1-c1nnc(-c2cc(C(F)(F)F)ccn2)n1C [Compound A14, 6-ethylsulfonyl-1-(2-fluoroethyl)-5-[4-methyl-5-[4-(trifluoromethyl)-2-pyridyl]-1,2,4-triazol-3-yl]triazolo[4,5-b]pyridine], which effect (mortality or growth inhibition) at 200 ppm [1] is on record?
The effect (mortality or growth inhibition) at 200 ppm was no less than 80%.

What about the mortality at 200 ppm [2] of the same compound?
The mortality at 200 ppm was no less than 80%.

What about the mortality at 24 ppm [3] of the same compound?
The mortality at 24 ppm was no less than 80%.

What about the percent control (mortality or growth inhibition) at 200 ppm [4] of the same compound?
The percent control (mortality or growth inhibition) at 200 ppm was no less than 80%.

What does the source list for CCS(=O)(=O)c1cc2c(cc1-c1nnc(-c3ccc(C(F)(F)F)nc3)n1C)nc(C(F)(F)F)n2C [Compound A5, 6-ethylsulfonyl-1-methyl-5-[4-methyl-5-[6-(trifluoromethyl)-3-pyridyl]-1,2,4-triazol-3-yl]-2-(trifluoromethyl)benzimidazole]?
effect (mortality or growth inhibition) at 200 ppm [1]: ≥ 80%; mortality at 200 ppm [2]: ≥ 80%; mortality at 24 ppm [3]: ≥ 80%; percent control (mortality, anti-feedant effect or growth inhibition) at 200 ppm [7]: ≥ 80%

What does the source list for CCS(=O)(=O)c1cc2c(nc1-c1nnc(-c3cc(C(F)(F)F)ccn3)n1C)CC(C)(C)O2 [Compound A19, 6-ethylsulfonyl-2,2-dimethyl-5-[4-methyl-5-[4-(trifluoromethyl)-2-pyridyl]-1,2,4-triazol-3-yl]-3H-furo[3,2-b]pyridine]?
percent control (mortality, anti-feedant effect or growth inhibition) at 200 ppm [7]: ≥ 80%; percent control (mortality or growth inhibition) at 200 ppm [4]: ≥ 80%

Which results are given for CCS(=O)(=O)c1cc2nnn(C)c2nc1-c1nnc(-c2cc(C(F)(F)F)ccn2)n1C [Compound A10, 6-ethylsulfonyl-3-methyl-5-[4-methyl-5-[4-(trifluoromethyl)-2-pyridyl]-1,2,4-triazol-3-yl]triazolo[4,5-b]pyridine]?
mortality at 200 ppm [5]: ≥ 80%; mortality at 200 ppm [2]: ≥ 80%; percent effect (mortality or growth inhibition) at 200 ppm [6]: ≥ 80%; mortality at 24 ppm [3]: ≥ 80%; percent control (mortality, anti-feedant effect or growth inhibition) at 200 ppm [7]: ≥ 80%; percent control (mortality or growth inhibition) at 200 ppm [4]: ≥ 80%

Which mortality at 24 ppm [3] does the source give for CCS(=O)(=O)c1cc2nnn(CCF)c2nc1-c1nnc(-c2cc(C(F)(F)F)ccn2)n1C [Compound A15, 6-ethylsulfonyl-3-(2-fluoroethyl)-5-[4-methyl-5-[4-(trifluoromethyl)-2-pyridyl]-1,2,4-triazol-3-yl]triazolo[4,5-b]pyridine] here?
Its mortality at 24 ppm is no less than 80%.

Which percent effect (mortality or growth inhibition) at 200 ppm [6] does the source give for CCSc1cc2sc(C(F)(F)F)nc2cc1-c1nnc(-c2cc(C(F)(F)F)ccn2)n1C [Compound A7, 6-ethylsulfanyl-5-[4-methyl-5-[4-(trifluoromethyl)-2-pyridyl]-1,2,4-triazol-3-yl]-2-(trifluoromethyl)-1,3-benzothiazole] here?
The percent effect (mortality or growth inhibition) at 200 ppm was no less than 80%.

And the percent control (mortality, anti-feedant effect or growth inhibition) at 200 ppm [7]?
Its percent control (mortality, anti-feedant effect or growth inhibition) at 200 ppm is no less than 80%.

Which effect (mortality or growth inhibition) at 200 ppm [1] does the source give for CCS(=O)(=O)c1cc2c(nc1-c1nnc(-c3cc(C(F)(F)F)ncn3)n1C)CC(C)(C)O2 [Compound A20, 6-ethylsulfonyl-2,2-dimethyl-5-[4-methyl-5-[6-(trifluoromethyl)pyrimidin-4-yl]-1,2,4-triazol-3-yl]-3H-furo[3,2-b]pyridine] here?
Its effect (mortality or growth inhibition) at 200 ppm is no less than 80%.

And the percent effect (mortality or growth inhibition) at 200 ppm [6]?
Its percent effect (mortality or growth inhibition) at 200 ppm is no less than 80%.

What about the mortality at 24 ppm [3] of the same compound?
The mortality at 24 ppm was no less than 80%.

What about the percent control (mortality, anti-feedant effect or growth inhibition) at 200 ppm [7] of the same compound?
Its percent control (mortality, anti-feedant effect or growth inhibition) at 200 ppm is no less than 80%.

With CCS(=O)(=O)c1cc2ccccc2nc1-c1nnc(-c2cc(C(F)(F)F)ccn2)n1C [Compound A3, 3-ethylsulfonyl-2-[4-methyl-5-[4-(trifluoromethyl)-2-pyridyl]-1,2,4-triazol-3-yl]quinoline] as the compound, how does the mortality at 200 ppm [2] read?
Its mortality at 200 ppm is no less than 80%.

And the percent effect (mortality or growth inhibition) at 200 ppm [6]?
Its percent effect (mortality or growth inhibition) at 200 ppm is no less than 80%.

And the mortality at 24 ppm [3]?
The mortality at 24 ppm was no less than 80%.

And the percent control (mortality, anti-feedant effect or growth inhibition) at 200 ppm [7]?
Its percent control (mortality, anti-feedant effect or growth inhibition) at 200 ppm is no less than 80%.

What about the percent control (mortality or growth inhibition) at 200 ppm [4] of the same compound?
Its percent control (mortality or growth inhibition) at 200 ppm is no less than 80%.

Which melting point does the source give for CCS(=O)(=O)c1cc2nnn(COC)c2nc1-c1nnc(-c2cc(C(F)(F)F)ccn2)n1C [Compound A16, 6-ethylsulfonyl-3-(methoxymethyl)-5-[4-methyl-5-[4-(trifluoromethyl)-2-pyridyl]-1,2,4-triazol-3-yl]triazolo[4,5-b]pyridine] here?
Its melting point is 198 to 200 °C.

With CCS(=O)(=O)c1cc2nn(C)nc2nc1-c1nnc(-c2cc(C(F)(F)F)ccn2)n1C [Compound A18, 6-ethylsulfonyl-2-methyl-5-[4-methyl-5-[4-(trifluoromethyl)-2-pyridyl]-1,2,4-triazol-3-yl]triazolo[4,5-b]pyridine] as the compound, how does the effect (mortality or growth inhibition) at 200 ppm [1] read?
Its effect (mortality or growth inhibition) at 200 ppm is no less than 80%.

What about the mortality at 200 ppm [2] of the same compound?
Its mortality at 200 ppm is no less than 80%.

And the mortality at 24 ppm [3]?
Its mortality at 24 ppm is no less than 80%.
